Values joined by “and” are separate entries in the source; they are usually repeats but may differ in a detail not shown here. Identical values can stand only once.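 Five compound concentrations were applied to cells in 96-well plates for 48 hours; endpoints were derived by simple linear interpolation of the resulting dose-response curve. GI50 marks 50% less growth. TGI: total growth inhibition.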
Legend:
Assay in all cases: DTP human tumour cell line panel, 48 h
MDA-MB-435 = system: MDA-MB-435
KM12 colon = system: KM12 colon
SK-OV-3 ovarian = system: SK-OV-3 ovarian
SR leukemia = system: SR leukemia
ACHN renal = system: ACHN renal
MDA-MB-231 breast = system: MDA-MB-231 breast
OVCAR-4 ovarian = system: OVCAR-4 ovarian
NCI/ADR-RES ovarian = system: NCI/ADR-RES ovarian
OVCAR-8 ovarian = system: OVCAR-8 ovarian
RXF 393 renal = system: RXF 393 renal

Compound | GI50 (MDA-MB-435) | TGI (MDA-MB-435) | GI50 (KM12 colon) | TGI (KM12 colon) | GI50 (SK-OV-3 ovarian) | TGI (SK-OV-3 ovarian) | TGI (SR leukemia) | TGI (ACHN renal) | GI50 (MDA-MB-231 breast) | TGI (MDA-MB-231 breast) | TGI (OVCAR-4 ovarian) | GI50 (NCI/ADR-RES ovarian) | TGI (NCI/ADR-RES ovarian) | GI50 (OVCAR-8 ovarian) | TGI (OVCAR-8 ovarian) | TGI (RXF 393 renal) | GI50 (SR leukemia) | GI50 (RXF 393 renal) | GI50 (ACHN renal) | GI50 (OVCAR-4 ovarian)
CN(C)CCOC(c1ccccc1)c1ccccc1 | 24.6 µM | 44.1 µM and > 100 µM | 32.8 µM | 68.1 µM and > 100 µM | 40.6 µM | 54.8 µM | > 100 µM | > 100 µM | 15.6 µM | 45.2 µM and > 100 µM | > 100 µM | 33.1 µM | 48.9 µM and > 100 µM | 14.8 µM | 22.7 µM and > 100 µM | – | – | – | – | –
Fc1cccc2c1cc1ccc3cccc4ccc2c1c34 | – | – | – | > 100 µM | – | > 100 µM | > 100 µM | > 100 µM | – | – | > 100 µM | – | – | – | > 100 µM | > 100 µM | – | – | – | –
NCCN1C(=O)C2C3c4ccccc4C(c4ccccc43)C2C1=O (configuration not stated) | – | – | – | > 100 µM | – | > 100 µM | – | > 100 µM | – | – | > 100 µM | – | – | – | > 100 µM | – | – | – | – | –
CNC(=O)c1cccc2c(Nc3ccc(NS(C)(=O)=O)cc3OC)c3cccc(C)c3nc12 | – | – | – | 2.42 µM | – | 0.907 µM | 0.365 µM | 0.322 µM | – | – | 4.35 µM | – | 9.36 µM | – | 5.98 µM | 3.52 µM | – | – | – | –
Cc1ccc(-c2nc(N3CCCNCC3)c3oc(-c4ccccc4)nc3n2)cc1 | 1.77 µM | 3.19 µM | 1.89 µM | 3.45 µM | 1.89 µM | 3.31 µM | 0.624 µM | 3.22 µM | 1.77 µM | 3.27 µM | 3.55 µM | – | – | – | – | 3.29 µM | 0.239 µM | 1.75 µM | 1.79 µM | 1.82 µM
CCOc1ccccc1NC(=O)CCc1n[nH]c(=S)o1 | – | – | – | > 100 µM | – | > 100 µM | > 100 µM | > 100 µM | – | – | – | – | – | – | – | – | – | – | – | –
CCOC(=O)/C(C#N)=C1/C(O)=C(C(=O)OC)C(C(=O)OC)=C1C(=O)OC | – | – | – | > 100 µM | – | > 100 µM | – | > 100 µM | – | – | > 100 µM | – | – | – | > 100 µM | > 100 µM | – | – | – | –
O=S(O)CCCSSc1ccccc1 | – | – | – | > 100 µM | – | > 100 µM | – | > 100 µM | – | – | > 100 µM | – | – | – | > 100 µM | > 100 µM | – | – | – | –
CCN(CC)CCCC(C)N=c1cc(Nc2cc(=NC(C)CCCN(CC)CC)c3cc(OC)ccc3o2)oc2ccc(OC)cc12 (configuration not stated) | 0.871 µM | 1.68 µM | 1.62 µM | 5.63 µM | 1.31 µM | 4.13 µM | 3.02 µM | – | 0.666 µM | 1.88 µM | 1.71 µM | 2.09 µM | 15.3 µM | 0.441 µM | 3.78 µM | 1.17 µM | 0.943 µM | 0.528 µM | – | 0.723 µM
CCC[CH2][Sn]1([CH2]CCC)[O]C(=O)c2ccc(C)cc2[O]1 | – | – | 1.06 µM | 2.36 µM | 1.4 µM | 2.75 µM | 1.25 µM | 1.42 µM | – | – | 2.43 µM | – | – | 0.818 µM | 2.1 µM | 0.839 µM | 0.255 µM | 0.306 µM | 0.404 µM | 1.11 µM
Cc1cn2c(/C=N/N=C(N)N)c(-c3cccnc3)nc2s1 | 2.4 µM | 7.15 µM | 1.58 µM | 7.21 µM | 15.9 µM | 33.3 µM | – | 25.8 µM | 10.1 µM | 24.2 µM | 29.6 µM | 2.81 µM | 9.97 µM | 27.4 µM | 69 µM | 59.1 µM | – | 15.2 µM | 11.5 µM | 15.7 µM

Source: PubChem BioAssay (NCI)
